# Patent US20110053163A1, “Biomarker” (BIOVATOR TECHNOLOGIES AB, priority 2007, published 2011)
# Like-named read-outs stand apart in the source and are kept apart here.
# Assays:
# Assay type in all cases: cell-based, human
# MonoMac-6 cells = assay: Cytokine Profile Assay (CPA): neopterin production by stimulated MonoMac-6 cells, ELISA; conditions: for neopterin release (in words): chemicals, in the presence or absence of IFN-γ
# Excerpt: (§1) The instructions of the manufacturers were followed. All these tests are enzyme immunoassays (EIA:s). The principle is that microtiter plate wells are labelled with a cytokine specific capture antibody. If cytokine is present in the samples added to the wells it will be captured to the bottom of the well. […] The reaction is thereafter measured as colour developed after addition of a substrate for the enzyme. The values for the test wells are compared with a standard curve obtained by adding a series of known amounts of cytokine. The values obtained for control wells with no substance added are used as background values for cytokine levels.
# The myelomonocytic cell line MonoMac-6 (obtained from DSMZ, accession number ACC 124, Prof. H. W. L. Ziegler-Heitbrock, Inst. For Immunology, University of Munich, Munich) was cultured in cell culture flasks (Corning). Cells were cultured in RPMI 1640 medium (Gibco BRL), containing 20 mM HEPES and L-glutamine and supplemented with 10% heat-inactivated foetal bovine serum (Gibco BRL), penicillin (100 U/mL; Sigma-Aldrich), streptomycin (100 μg/mL; Sigma-Aldrich), sodium pyruvate (1.0 mM;Gibco BRL), human insulin (9 μg/mL; Gibco BRL) and non-essential amino acids (Gibco BRL) or cultured in Panserin 411 (Pan Biotech) supplemented with penicillin (100 U/mL), streptomycin (100 μg/mL).
# The cells were split approximately 1:3 the day before stimulation. The stimulation procedure was performed in three steps. The first step was pre-dilution of test substances, to double the final concentration, in cell culture medium. Furthermore, Interferon-γ (IFN-γ) (100 U, PreproTech) was added in the cell culture media for 24 or 48 hours during stimulation of cells with test substances. The number of cells was then determined by trypan blue exclusion and the cells were diluted to twice the final test concentration (2×10^6 cells/mL) if not otherwise indicated and 100 μl of cell suspension was added per well in 96 well tissue culture plates (Corning). Finally, a 100 μl of pre-diluted test substance (triplicate cultures) was added to the tissue culture plates. […] The stimulated cells were cultured at 37° C., 5% CO2, for 24 or 48 hours. The cell suspension was transferred to new cell culture plates and stored at −20° C. until analyzed. Thereafter the cell suspension was analyzed for presence of neopterin and IL-10 by ELISA (IBL-Hamburg) following the manufacturers instructions.
# THP-1 cells = assay: CPA: neopterin production by stimulated THP-1 cells; conditions: RPMI+10% FCS, 24 hrs, different concentrations
# Excerpt: as §1
# (§2) The cells were split approximately 1:3 the day before stimulation. The stimulation procedure was performed in three steps. The first step was pre-dilution of test substances, to double the final concentration, in cell culture medium. […] The number of cells was then determined by trypan blue exclusion and the cells were diluted to twice the final test concentration (2×10^6 cells/mL) if not otherwise indicated and 100 μl of cell suspension was added per well in 96 well tissue culture plates (Corning). […] The cell suspension was transferred to new cell culture plates and stored at −20° C. until analyzed. Thereafter the cell suspension was analyzed for presence of neopterin and IL-10 by ELISA (IBL-Hamburg) following the manufacturers instructions.
# MM6-cells = assay: CPA: IL-10 levels of stimulated MM6 cells, ELISA; conditions: 25-200 μg/ml; 48 hours; with IFN-γ 100 U/ml
# Excerpt: as §1, with “levels. […]” for “levels.”
# as §2, with “stimulation.” for “stimulation. The stimulation procedure was performed in three steps. The first step was pre-dilution of test substances, to double the final concentration, in cell culture medium.”
# [1] = proteins, RPMI+10% FCS, 24 hrs, with IFN-γ 100 U/ml, over the tested concentrations
compound,measurement,setting,value
"[Cl][Pt-2]([Cl])([Cl])([Cl])([Cl])[Cl].[NH4+].[NH4+] [HCPt, Ammonium hexachloroplatinate, reference compound]",neopterin release (in words),"MonoMac-6 cells; RPMI+10% FCS, 24 hrs",none of the chemicals tested induced any neopterin release above background levels
Lipopolysaccharide [LPS],neopterin response (in words),THP-1 cells,Dose response was seen
"Soy lectin: Lectin: glycine max (soy been) (Medicago), low potential of being allergenic",neopterin response (in words),"MonoMac-6 cells; 6.6 μg/ml, RPMI+10% FCS, 24 hrs, with IFN-γ",did not induce any neopterin response above the levels of control cells
same,neopterin response (in words),"MonoMac-6 cells; 180 μg/ml, RPMI+10% FCS, 24 hrs, with IFN-γ",comparable to the cellular response towards Ara h 2 at 6.6 μg/ml
same,neopterin response (in words),MonoMac-6 cells; [1],Weak cellular neopterin responce
same,neopterin response (in words),"MonoMac-6 cells; proteins, RPMI+10% FCS, 24 hrs, with IFN-γ 100 U/ml, over the tested concentrations, listed as soy lectin",did not induce neopterin above background levels
"Oc1ccccc1 [phenol, reference compound]",neopterin response (in words),MonoMac-6 cells,induced a neopterin response above background levels
"O=[N+]([O-])c1ccc(Cl)c([N+](=O)[O-])c1 [DNCB, 2,4 Dinitrocholorobenzene, reference compound]",neopterin release (in words),"MonoMac-6 cells; RPMI+10% FCS, 24 hrs",none of the chemicals tested induced any neopterin release above background levels
"CCOC(=O)c1ccc(N)cc1 [benzocaine, Benzocaine, reference compound]",neopterin response (in words),"MonoMac-6 cells; chemical at 30 μg/ml, with IFN-γ, RPMI+10% FCS, 24 hrs",induced a neopterin response above background levels
gelatin,IL-10 levels (in words),MM6-cells,did not induce IL-10 above background levels
same,neopterin response (in words),MonoMac-6 cells; [1],did not induce any neopterin production above the background levels
